Assay results reported in ChEMBL document CHEMBL3885881, “DrugMatrix”.

Species on record: Rattus norvegicus
Assay: DrugMatrix - Regimen: Daily Repeat
Type: toxicity, organism-based, Sprague-Dawley
Design: regimen Daily Repeat, gender Male, age 6-8 weeks
Settings: in vivo, po, 620 mg/kg, route oral GAVAGE, dose level High, vehicle 100 % WATER; for BASOPHIL / EOSINOPHIL / ERYTHROCYTE COUNT / HEMATOCRIT / HEMOGLOBIN / LEUKOCYTE COUNT / LYMPHOCYTE / MEAN CORPUSCULAR HEMOGLOBIN / MEAN CORPUSCULAR HEMOGLOBIN CONCENTRATION / MEAN CORPUSCULAR VOLUME / MONOCYTE / NEUTROPHIL / PLATELET COUNT: tissue Blood; for ALANINE AMINOTRANSFERASE / ALBUMIN / ALKALINE PHOSPHATASE / ASPARTATE AMINOTRANSFERASE / BLOOD UREA NITROGEN / CARBON DIOXIDE / CHLORIDE / CHOLESTEROL / CREATINE PHOSPHOKINASE / CREATININE / GLUCOSE / LACTATE DEHYDROGENASE / LIPASE / PHOSPHORUS / POTASSIUM / SODIUM / TOTAL BILIRUBIN / TOTAL PROTEIN / URIC ACID: tissue Plasma

## OCCNCCO [DIETHANOLAMINE]
72 h, time 3 day
  BASOPHIL: 0.67%
  EOSINOPHIL: 0.37%
  ERYTHROCYTE COUNT: 6.14 x10E6/uL
  HEMATOCRIT: 41.37%
  HEMOGLOBIN: 13.23 G/DL
  LEUKOCYTE COUNT: 8.17 x10E3/uL
  LYMPHOCYTE: 87.67%
  MEAN CORPUSCULAR HEMOGLOBIN: 21.6 pg
  MEAN CORPUSCULAR HEMOGLOBIN CONCENTRATION: 32.1 G/DL
  MEAN CORPUSCULAR VOLUME: 67.4 fL
  MONOCYTE: 2.03%
  NEUTROPHIL: 6.8%
  PLATELET COUNT: 1227 x10E3/uL
  ALANINE AMINOTRANSFERASE: 45.67 u/L
  ALBUMIN: 4.33 G/DL
  ALKALINE PHOSPHATASE: 468 u/L
  ASPARTATE AMINOTRANSFERASE: 125.67 u/L
  BLOOD UREA NITROGEN: 18 mg/dL
  CARBON DIOXIDE: 24.33 mmol/L
  CHLORIDE: 111 MEQ/L
  CHOLESTEROL: 75 mg/dL
  CREATINE PHOSPHOKINASE: 164.33 u/L
  CREATININE: 0.5 mg/dL
  GLUCOSE: 181.67 mg/dL
  LACTATE DEHYDROGENASE: 102.67 u/L
  LIPASE: 21.33 u/L
  PHOSPHORUS: 13.47 mg/dL
  POTASSIUM: 6.33 MEQ/L
  SODIUM: 154.33 MEQ/L
  TOTAL BILIRUBIN: 0.3 mg/dL
  TOTAL PROTEIN: 6.5 G/DL
  URIC ACID: 2.07 mg/dL
120 h, time 5 day
  BASOPHIL: 0.47%
  EOSINOPHIL: 0.37%
  ERYTHROCYTE COUNT: 6.72 x10E6/uL
  HEMATOCRIT: 42.63%
  HEMOGLOBIN: 13.57 G/DL
  LEUKOCYTE COUNT: 7.2 x10E3/uL
  LYMPHOCYTE: 85.43%
  MEAN CORPUSCULAR HEMOGLOBIN: 20.17 pg
  MEAN CORPUSCULAR HEMOGLOBIN CONCENTRATION: 31.77 G/DL
  MEAN CORPUSCULAR VOLUME: 63.43 fL
  MONOCYTE: 2.37%
  NEUTROPHIL: 9.9%
  PLATELET COUNT: 1342 x10E3/uL
  ALANINE AMINOTRANSFERASE: 54.33 u/L
  ALBUMIN: 4.7 G/DL
  ALKALINE PHOSPHATASE: 407 u/L
  ASPARTATE AMINOTRANSFERASE: 196.33 u/L
  BLOOD UREA NITROGEN: 18.33 mg/dL
  CARBON DIOXIDE: 26 mmol/L
  CHLORIDE: 109.33 MEQ/L
  CHOLESTEROL: 82.67 mg/dL
  CREATINE PHOSPHOKINASE: 320.67 u/L
  CREATININE: 0.33 mg/dL
  GLUCOSE: 164.33 mg/dL
  LACTATE DEHYDROGENASE: 81.33 u/L
  LIPASE: 24.67 u/L
  PHOSPHORUS: 12.87 mg/dL
  POTASSIUM: 5.67 MEQ/L
  SODIUM: 152.67 MEQ/L
  TOTAL BILIRUBIN: 0.4 mg/dL
  TOTAL PROTEIN: 7.07 G/DL
  URIC ACID: 2.27 mg/dL
[…], time 14 day
  BASOPHIL: 1.68%
  EOSINOPHIL: 0.28%
  ERYTHROCYTE COUNT: 6.33 x10E6/uL
  HEMATOCRIT: 37.84%
  HEMOGLOBIN: 12.58 G/DL
  LEUKOCYTE COUNT: 17.16 x10E3/uL
  LYMPHOCYTE: 79.3%
  MEAN CORPUSCULAR HEMOGLOBIN: 19.88 pg
  MEAN CORPUSCULAR HEMOGLOBIN CONCENTRATION: 33.26 G/DL
  MEAN CORPUSCULAR VOLUME: 59.7 fL
  MONOCYTE: 1.7%
  NEUTROPHIL: 15.34%
  PLATELET COUNT: 590 x10E3/uL
  ALANINE AMINOTRANSFERASE: 40.2 u/L
  ALBUMIN: 4.34 G/DL
  ALKALINE PHOSPHATASE: 449 u/L
  ASPARTATE AMINOTRANSFERASE: 305.8 u/L
  BLOOD UREA NITROGEN: 32.2 mg/dL
  CARBON DIOXIDE: 27.6 mmol/L
  CHLORIDE: 106 MEQ/L
  CHOLESTEROL: 46.6 mg/dL
  CREATINE PHOSPHOKINASE: 123.4 u/L
  CREATININE: 0.56 mg/dL
  GLUCOSE: 162 mg/dL
  LACTATE DEHYDROGENASE: 58 u/L
  LIPASE: 19 u/L
  PHOSPHORUS: 12.6 mg/dL
  POTASSIUM: 5.54 MEQ/L
  SODIUM: 151 MEQ/L
  TOTAL BILIRUBIN: 0.34 mg/dL
  TOTAL PROTEIN: 6.32 G/DL
  URIC ACID: 0.68 mg/dL
